The values below come from patent US11814445B2, “Cyclic polypeptides for PCSK9 inhibition” (Ra Pharmaceuticals, Inc., priority 2018, dated 2023).

In test [1] the target is human PCSK9 / human LDLR EGFa domain (Homo sapiens, UniProt Q8NBP7). The test can be described thus: TR-FRET assay of inhibition of the PCSK9-LDLR protein-protein interaction. The format is binding. The note with it: 20 nM human PCSK9, 20 nM human LDLR EGFa domain, 2 hours room temperature. As for the experimental part: A time-resolved fluorescence resonance energy (TR-FRET) assay was used to measure inhibition of the PCSK9-LDLR protein-protein interaction. Briefly, 20 nM avitag-biotinylated human PCSK9 was incubated with 20 nM his-tagged human LDLR EGFa domain in the presence of 5 nM LANCE Ulight Streptavidin (Perkin Elmer) and 5 nM europium-Anti-6×His (Perkin Elmer) for 2 hours covered at room temperature in buffer containing 50 mM HEPES, 150 mM NaCl, 5 mM CaCl2), 0.01% BSA and 0.01% Surfactant P20. Compounds were tested in dose-response and concentrations giving half-maximal inhibition calculated using a 4-parameter fit equation.
On the technique in general: Time-resolved FRET reads energy transfer from a long-lived donor to a nearby acceptor.

Test [2] has as its target T1, PCSK9 (Homo sapiens, UniProt Q8NBP7).
T1 construct: biotin (biotinylated)
The test can be described thus: PCSK9 Alexa FRET Standard assay (displacement of AlexaFluor647 tagged cyclic peptide Reagent A). The format is binding. The conditions noted are these: 0.5 nM PCSK9, 20 nM AF cyclic peptide Reagent A. As for the experimental part:
A solution containing 1 nM biotinylated PCSK9+2.5 nM Lance Streptavidin Europium (Strep-Eu) was made in 50 mM HEPES pH 7.4, 0.15 M NaCl, 5 mM CaCl2), 0.01% BSA, and 0.01% Surfactant P20. A separate solution containing 40 nM of the AlexaFluor tagged cyclic peptide was made in the same buffer system. An Echo was used to transfer 0.750 ul of compound to an assay plate followed by the addition of 15 ul of PCSK9+Stept-Eu and 15 ul of AF peptide. The final assay volume was 30.750 ul containing 0.5 nM PCSK9, 1.25 nM Strep-Eu, and 20 nM AF cyclic peptide. The reaction was incubated at room temperature for at least two hours prior to fluorescence measurements using an Envision Multilabel Reader. IC50 values were determined by fitting data to a sigmoidal dose-response curve using nonlinear regression. Ki was then calculated from the IC50 and the KD of AF cyclic peptide. Counts (B-counts) of the europium-labeled PCSK9 were followed to observe if compounds were […]. A fall off of the B-counts likely indicated a false positive of inhibition. Data from this procedure was reported as “A=‘numerical value’ (nanomolar)”

As usually defined, the IC50 is the midpoint of a concentration-inhibition curve.

Numbered stars: 1 amine (or outer) side, 2 acyl side, 3 side chain; on linkers, the order of the positions; unused ones are H or OH. Bridge positions count the residues as written; N and C are the ends. Square brackets hold non-standard residues; d marks the D form. Peptide text beside a SMILES is read from it. ξ: configuration not given here. X2 = NC(=O)[C@H](CSCc1cccc(C[*:1])c1)CC(=O)[C@@H]1CCCN1[*:2]; Phe(3,4,5-F3) = N[C@@H](Cc1cc(F)c(F)c(F)c1)C(=O)O; Phe(4-CF3) = N[C@@H](Cc1ccc(C(F)(F)F)cc1)C(=O)O; Trp(5-F) = N[C@@H](Cc1c[nH]c2ccc(F)cc12)C(=O)O; Asp(3,3-Me2) = CC(C)(C(=O)O)[C@H](N)C(=O)O; Bip = N[C@@H](Cc1ccc(-c2ccccc2)cc1)C(=O)O; Phe(3-CN) = N#Cc1cccc(C[C@H](N)C(=O)O)c1; X1 = O=C(CCSCc1cccc(CSCCN[*:1])c1)[*:2]; Phe(4-F) = N[C@@H](Cc1ccc(F)cc1)C(=O)O; Pro(4,4-F2) = O=C(O)[C@@H]1CC(F)(F)CN1; 1Nal = N[C@@H](Cc1cccc2ccccc12)C(=O)O; 2Nal = N[C@@H](Cc1ccc2ccccc2c1)C(=O)O; mXylylene = c1cc(C[*:1])cc(C[*:2])c1; NMeY = CN[C@@H](Cc1ccc(O)cc1)C(=O)O; X3 = O=C(CCSC/C=C/CSCCN[*:1])[*:2]; hhPhe = N[C@@H](CCCc1ccccc1)C(=O)O; NMeF = CN[C@@H](Cc1ccccc1)C(=O)O; αMeP = C[C@@]1(C(=O)O)CCCN1; Aze = O=C(O)[C@@H]1CCN1; ξP = O=C(O)C1CCCN1; Mpa = O=C(O)CCS

T1 sequence (Q8NBP7 153-692): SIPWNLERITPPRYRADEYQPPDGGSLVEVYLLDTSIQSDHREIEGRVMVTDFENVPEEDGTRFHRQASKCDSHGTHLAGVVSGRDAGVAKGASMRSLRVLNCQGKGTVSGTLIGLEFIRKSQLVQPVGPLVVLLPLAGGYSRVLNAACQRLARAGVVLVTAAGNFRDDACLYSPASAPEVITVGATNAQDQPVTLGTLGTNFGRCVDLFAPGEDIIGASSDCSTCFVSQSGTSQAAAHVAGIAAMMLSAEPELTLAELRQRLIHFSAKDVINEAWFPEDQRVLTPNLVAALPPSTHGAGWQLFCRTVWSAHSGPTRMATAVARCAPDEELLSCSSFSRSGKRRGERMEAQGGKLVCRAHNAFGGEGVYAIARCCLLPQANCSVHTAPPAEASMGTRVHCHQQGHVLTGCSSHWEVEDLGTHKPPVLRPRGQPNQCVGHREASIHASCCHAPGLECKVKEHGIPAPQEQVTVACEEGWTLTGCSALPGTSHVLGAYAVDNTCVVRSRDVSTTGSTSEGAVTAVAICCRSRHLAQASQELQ
human PCSK9 / human LDLR EGFa domain, sequence (Q8NBP7 153-692): as above

For the compound `C[C@@H]1NC(=O)[C@@H]2CCCN2C(=O)[C@H](Cc2ccc(F)cc2)NC(=O)[C@H](Cc2c[nH]c3ccc(F)cc23)NC(=O)CNC(=O)[C@H](CCCCN)NC(=O)CCSCc2cccc(c2)CSC[C@@H](C(N)=O)NC(=O)[C@@H]2CCCN2C(=O)[C@H](Cc2ccc(O)cc2)NC1=O` [Compound 006] ([Mpa]KG[Trp(5-F)][Phe(4-F)]PAYPC-NH2; linker 1-10 via mXylylene), the 50% inhibitory concentration (IC50) in test [1] and in test [2] was 100 to 1000 nM each time.
As for `C[C@@H]1NC(=O)[C@@H]2CCCN2C(=O)[C@H](Cc2ccc3ccccc3c2)NC(=O)[C@H](Cc2c[nH]c3ccc(F)cc23)NC(=O)CNC(=O)[C@H](CCCCN)NC(=O)CCSCc2cccc(c2)CSC[C@@H](C(N)=O)NC(=O)[C@@H]2CCCN2C(=O)[C@H](Cc2ccc(O)cc2)NC1=O` [Compound 011] ([Mpa]KG[Trp(5-F)][2Nal]PAYPC-NH2; linker 1-10 via mXylylene), the IC50 in test [1] and in test [2] was 1 to 100 nM in each case.
For `C[C@@H]1NC(=O)[C@@H]2CCCN2C(=O)[C@H](Cc2cccc3ccccc23)NC(=O)[C@H](Cc2c[nH]c3ccc(F)cc23)NC(=O)CNC(=O)[C@H](CCCCN)NC(=O)CCSCc2cccc(c2)CSC[C@@H](C(N)=O)NC(=O)[C@@H]2CCCN2C(=O)[C@H](Cc2ccc(O)cc2)NC1=O` [Compound 012] ([Mpa]KG[Trp(5-F)][1Nal]PAYPC-NH2; linker 1-10 via mXylylene), the IC50 in test [1] and in test [2] was 1 to 100 nM each time.
Turning to `C[C@@H]1NC(=O)[C@@H]2CCCN2C(=O)[C@H](CCCc2ccccc2)NC(=O)[C@H](Cc2c[nH]c3ccc(F)cc23)NC(=O)CNC(=O)[C@H](CCCCN)NC(=O)CCSCc2cccc(c2)CSC[C@@H](C(N)=O)NC(=O)[C@@H]2CCCN2C(=O)[C@H](Cc2ccc(O)cc2)NC1=O` [Compound 013] ([Mpa]KG[Trp(5-F)][hhPhe]PAYPC-NH2; linker 1-10 via mXylylene), the IC50 in test [1] and in test [2] was 1 to 100 nM each time.
Turning to `C[C@@H]1NC(=O)[C@@H]2CCCN2C(=O)[C@H](Cc2cc(F)c(F)c(F)c2)NC(=O)[C@H](Cc2c[nH]c3ccc(F)cc23)NC(=O)CNC(=O)[C@H](CCCCN)NC(=O)CCSCc2cccc(c2)CSC[C@@H](C(N)=O)NC(=O)[C@@H]2CCCN2C(=O)[C@H](Cc2ccc(O)cc2)NC1=O` [Compound 014] ([Mpa]KG[Trp(5-F)][Phe(3,4,5-F3)]PAYPC-NH2; linker 1-10 via mXylylene), the IC50 in test [1] and in test [2] was 1 to 100 nM in each case.
Regarding `C[C@@H]1NC(=O)[C@@H]2CCCN2C(=O)[C@H](Cc2cccc(C#N)c2)NC(=O)[C@H](Cc2c[nH]c3ccc(F)cc23)NC(=O)CNC(=O)[C@H](CCCCN)NC(=O)CCSCc2cccc(c2)CSC[C@@H](C(N)=O)NC(=O)[C@@H]2CCCN2C(=O)[C@H](Cc2ccc(O)cc2)NC1=O` [Compound 015] ([Mpa]KG[Trp(5-F)][Phe(3-CN)]PAYPC-NH2; linker 1-10 via mXylylene), the IC50 in test [1] and in test [2] was 1 to 100 nM in each case.
Regarding `C[C@@H]1NC(=O)[C@@H]2CCCN2C(=O)[C@H](Cc2ccc(-c3ccccc3)cc2)NC(=O)[C@H](Cc2c[nH]c3ccc(F)cc23)NC(=O)CNC(=O)[C@H](CCCCN)NC(=O)CCSCc2cccc(c2)CSC[C@@H](C(N)=O)NC(=O)[C@@H]2CCCN2C(=O)[C@H](Cc2ccc(O)cc2)NC1=O` [Compound 017] ([Mpa]KG[Trp(5-F)][Bip]PAYPC-NH2; linker 1-10 via mXylylene), the IC50 in test [1] lay within 100 to 1000 nM; in test [2], 1000 to 12100 nM.
In the case of `C[C@@H]1NC(=O)[C@@H]2CCN2C(=O)[C@H](Cc2c[nH]c3ccc(F)cc23)NC(=O)[C@H](Cc2c[nH]c3ccc(F)cc23)NC(=O)[C@@H](C)NC(=O)[C@H](CCCCN)NC(=O)CCSCc2cccc(c2)CSC[C@@H](C(N)=O)CC(=O)[C@@H]2CCCN2C(=O)[C@H](Cc2ccc(O)cc2)NC1=O` [Compound 034] ([Mpa]K[dA][Trp(5-F)][Trp(5-F)][Aze]AY; linker 1-C via X2), the IC50 is 100 to 1000 nM in test [1] and 1 to 100 nM in test [2].
The matching figures for `C[C@@H]1NC(=O)[C@@H]2CC(F)(F)CN2C(=O)[C@H](Cc2c[nH]c3ccc(F)cc23)NC(=O)[C@H](Cc2c[nH]c3ccc(F)cc23)NC(=O)[C@@H](C)NC(=O)[C@H](CCCCN)NC(=O)CCSCc2cccc(c2)CSC[C@@H](C(N)=O)NC(=O)[C@@H]2CCCN2C(=O)[C@H](Cc2ccc(O)cc2)NC1=O` [Compound 036] ([Mpa]K[dA][Trp(5-F)][Trp(5-F)][Pro(4,4-F2)]AYPC-NH2; linker 1-10 via mXylylene): 100 to 1000 nM and 100 to 1000 nM.
On to `NCCCC[C@@H]1NC(=O)CCSCc2cccc(c2)CSCCNC(=O)C2CCCN2C(=O)[C@H](Cc2ccc(O)cc2)NC(=O)CNC(=O)[C@H]2CCCN2C(=O)[C@H](Cc2c[nH]c3ccc(F)cc23)NC(=O)[C@H](Cc2c[nH]c3ccc(F)cc23)NC(=O)CNC1=O` (some centres unmarked) [Compound 041] (cyclo(G[Trp(5-F)][Trp(5-F)][dP]GY[ξP][X1]K)), for which the IC50 in test [1] and in test [2] was 1 to 100 nM each time.
With `C[C@@H]1NC(=O)[C@@H]2CCCN2C(=O)[C@H](Cc2c[nH]c3ccc(F)cc23)NC(=O)[C@H](Cc2c[nH]c3ccc(F)cc23)NC(=O)[C@@H](C)NC(=O)[C@H](CCCCN)NC(=O)CCSC/C=C/CSCCNC(=O)[C@]2(C)CCCN2C(=O)[C@H](Cc2ccc(O)cc2)NC1=O` [Compound 045] (cyclo(AY[αMeP][X3]K[dA][Trp(5-F)][Trp(5-F)]P)), the IC50 in test [1] and in test [2] was 1 to 100 nM in each case.
With `C[C@@H]1NC(=O)[C@@H]2CCCN2C(=O)[C@H](Cc2c[nH]c3ccc(F)cc23)NC(=O)[C@H](Cc2c[nH]c3ccc(F)cc23)NC(=O)[C@@H](C)NC(=O)[C@@H]2CCCN2C(=O)CCSCc2cccc(c2)CSCCNC(=O)[C@@H]2CCCN2C(=O)[C@H](Cc2ccc(O)cc2)NC1=O` [Compound 050] (cyclo(AYP[X1]P[dA][Trp(5-F)][Trp(5-F)]P)), the IC50 in test [1] lay in the range of 1 to 100 nM; in test [2], 1000 to 12100 nM.
`COc1ccc(C[C@H]2C(=O)N3CCC[C@H]3C(=O)NCCSCc3cccc(c3)CSCCC(=O)N3CCC[C@H]3C(=O)N[C@H](C)C(=O)N[C@@H](Cc3c[nH]c4ccc(F)cc34)C(=O)N[C@@H](Cc3c[nH]c4ccc(F)cc34)C(=O)N3CCC[C@H]3C(=O)N[C@@H](C)C(=O)N2C)cc1` [Compound 053] (cyclo(A[NMeY](Me)P[X1]P[dA][Trp(5-F)][Trp(5-F)]P)): the half-maximal inhibitory concentration (IC50) was 100 to 1000 nM in test [1] and 1000 to 12100 nM in test [2].
Turning to `C[C@@H]1NC(=O)CCSCc2cccc(c2)CSCCNC(=O)[C@@H]2CCCN2C(=O)[C@H](Cc2ccccc2)N(C)C(=O)[C@H](C)NC(=O)[C@@H]2CCCN2C(=O)[C@H](Cc2c[nH]c3ccc(F)cc23)NC(=O)[C@H](Cc2c[nH]c3ccc(F)cc23)NC(=O)[C@@H](C)NC1=O` [Compound 063] (cyclo(A[NMeF]P[X1]A[dA][Trp(5-F)][Trp(5-F)]P)), the IC50 in test [1] and in test [2] was 1 to 100 nM in each case.
As to `C[C@@H]1NC(=O)CCSCc2cccc(c2)CSC[C@@H](C(N)=O)NC(=O)[C@@H]2CCCN2C(=O)[C@H](Cc2ccc(C(F)(F)F)cc2)NC(=O)[C@H](C)NC(=O)[C@@H]2CCCN2C(=O)[C@H](Cc2c[nH]c3ccc(F)cc23)NC(=O)[C@H](Cc2c[nH]c3ccc(F)cc23)NC(=O)[C@@H](C)NC1=O` [Compound 084] ([Mpa]A[dA][Trp(5-F)][Trp(5-F)]PA[Phe(4-CF3)]PC-NH2; linker 1-10 via mXylylene), the IC50 in test [1] was in the range of 100 to 1000 nM; in test [2], 1 to 100 nM.
For the compound `COc1ccc(C[C@@H]2NC(=O)[C@H](C)NC(=O)[C@@H]3CCCN3C(=O)[C@H](NC(=O)[C@H](Cc3c[nH]c4ccc(F)cc34)NC(C)=O)Cc3cn(c4ccc(F)cc34)Cc3cn(nn3)-c3cccc(c3)CSCCNC(=O)[C@]3(C)CCCN3C2=O)cc1` [Compound 101], the IC50 in test [1] and in test [2] was 1 to 100 nM in each case.
On to `COc1ccc(C[C@@H]2NC(=O)[C@H](C)NC(=O)[C@@H]3CCCN3C(=O)[C@H](NC(=O)[C@H](Cc3c[nH]c4ccc(F)cc34)NC(=O)[C@@H](C)NC(C)=O)Cc3cn(c4ccc(F)cc34)Cc3cn(nn3)-c3cccc(c3)CSCCNC(=O)[C@]3(C)CCCN3C2=O)cc1` [Compound 102], for which the IC50 in test [1] and in test [2] was 1 to 100 nM throughout.
`CC(C)(C(=O)O)[C@@H]1NC(=O)[C@H](Cc2c[nH]c3ccc(F)cc23)NC(=O)[C@H](Cc2c[nH]c3ccc(F)cc23)NC(=O)CNC(=O)[C@H](CCCCN)NC(=O)CCSCc2cccc(c2)CSC[C@@H](C(N)=O)NC(=O)[C@]2(C)CCCN2C(=O)[C@H](Cc2ccc(O)cc2)NC(=O)[C@H](Cc2cnc[nH]2)NC1=O` [Compound 115] ([Mpa]KG[Trp(5-F)][Trp(5-F)][Asp(3,3-Me2)]HY[αMeP]C-NH2; linker 1-10 via mXylylene): the IC50 in test [1] was in the range of 100 to 1000 nM.
